Laboratory results reported in patent US20130022620A1, “ASSAYS AND METHODS PERTAINING TO PRE-AMYLOID INTERMEDIATES” (priority 2011, published 2013).

Columns and labels:
[1] = tested on: MCP-1 and IL-1β mRNA expression; test: qRT-PCR of MCP-1 and IL-1β mRNA in β-cells; assay type: cell-based, rat; conditions: β-cells stimulated with peptide
Procedure: Assays for qRT-PCR were carried out in 6-well plates. Total cellular RNA was isolated from h-IAPP stimulated β-cells using Qiagen RNA isolation kit, and the quality of RNA samples was determined by measurement of 260:280 ratio. Only samples with a 260:280 ratio of 2.0 or higher were used for reverse transcription. RNA samples were also treated by RNAse-free DNAse to avoid genomic DNA contamination. One microgram of RNA from each sample was reverse-transcribed to cDNA using MCP-1 and IL-1β primers. Non-template negative controls were also performed to monitor non-specific reactions. RNA isolated from rat IAPP and non-h-IAPP treated beta cells were used as negative controls. Equal amounts of RNA were used in each qRT-PCR reaction, and 18S was used as the internal control for amplification at the same time. qRT-PCR reactions were carried out using an Applied Biosystems 7500 RealTime PCR machine. The relative mRNA contents were normalized using 18S and quantification was carried out using qRT-PCR Quantifier Software.

sRAGE [2] = target: T1, sRAGE (Homo sapiens, UniProt Q15109); test: Surface plasmon resonance binding to immobilized sRAGE; conditions: 20 μM h-IAPP
T1 construct: the soluble extracellular domain of RAGE (sRAGE); made in house; host or cells: Sf9 insect cells (baculovirus)
T1 sequence (Q15109 23-342): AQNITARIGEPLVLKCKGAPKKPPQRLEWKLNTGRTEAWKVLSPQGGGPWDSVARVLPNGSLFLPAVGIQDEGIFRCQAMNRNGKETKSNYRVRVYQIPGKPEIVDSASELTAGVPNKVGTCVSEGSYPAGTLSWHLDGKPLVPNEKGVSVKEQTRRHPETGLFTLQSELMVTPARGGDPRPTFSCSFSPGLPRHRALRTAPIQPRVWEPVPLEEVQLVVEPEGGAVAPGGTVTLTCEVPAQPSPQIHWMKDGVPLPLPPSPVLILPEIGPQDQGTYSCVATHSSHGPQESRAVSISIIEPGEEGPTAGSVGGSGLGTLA
Procedure: A 20 μM h-IAPP solution was prepared in 16 mM tris HCl buffer (pH 7.4) and aliquots of the reaction were analyzed for binding at various incubation times after peptide dissolution. All SPR binding experiments were carried out on a GE Healthcare SPR instrument in the laboratory of Dr. Donald Landry at Columbia University Medical Center.

sRAGE [3] = target: T1, sRAGE; test: Tryptophan fluorescence quenching assay of sRAGE binding; conditions: sRAGE added at different time points of the reaction, 1:1 molar ratio
From the text: The quenching of tryptophan fluorescence indicates binding. Fluorescence measurements were made at right angle in a […] dual path length quartz cuvette, using a Photon Technology International fluorescent spectrometer (280 nm excitation and 350 nm emission). Background fluorescence from buffer and IAPP peptides were negligible. The fluorescence quantum yield reported for each time point is an average of 20 reads over 20 seconds (2.5 nm bandwidth and 1 second integration time). Final solution conditions contained 16 mM tris HCl (pH 7.4).

mouse pancreatic islets = test: AlamarBlue cell viability assay of pancreatic islets; assay type: cell-based; conditions: FVB
[4] = tested on: mouse aortic smooth muscle cells; test: AlamarBlue cell viability assay of aortic smooth muscle cells; assay type: cell-based
Procedure: Mouse vascular SMCs were cultured from the aortas of 10-week-old male mice using a modification of the procedure of Tarvo and Barret. See Tarvo et al. Blood Vessels. 1980; 17:110-116. SMCs were cultured following an explant protocol in accordance with institutional guidelines. […] Cyto-toxicity was measured by AlamarBlue assay. INS-1 β-cells were seeded at a density of 30,000 cells per well in 96-well plates and cultured for 24 hours prior to stimulation with IAPP. Human and rat IAPP were dissolved and incubated in 16 mM tris HCl (pH 7.4, 25° C.) prior to cell stimulation. AlamarBlue was diluted ten-fold in culture media and cells were incubated for 5 hours at 37° C. Fluorescence (excitation 530; emission 590 nm) was measured on a Beckman Coulter DTX880 fluorescent plate reader. Values calculated were relative to those of control cells treated with buffer only. All values represent means±SEM (n=3).

[5] = assay type: physicochemical
Procedure: We recorded 2D-IR spectra of the intermediate species. The results are consistent with a lack of beta sheet structure and support the CD data (FIG. 4B). […] Samples of h-IAPP intermediates and h-IAPP amyloid fibrils were pelleted at 20,000 G for 20 minutes and the amount of soluble peptide remaining in the supernatant was measured. […] Characterization of the species in the supernatant and resuspended pellet by thioflavin-T and TEM, before addition of the solutions to cultured cells, confirm the absence of amyloid in the soluble phase and the presence of amyloid in the resuspended pellet. […] ANS is a small hydrophobic dye which has been widely used in protein folding studies. It typically binds to partially structured states which are rich in secondary structure, compact, but which have not yet established the final tertiary structure. […] The dye did bind to the final amyloid fibrils; an effect that is mediated in part by electrostatic interactions. A set of p-cyano-phenylalanine (p-cyanoPhe) analogs of h-IAPP were examined to probe further the nature of the toxic intermediate species. h-IAPP contains two phenylalanines at positions 15 and 23 and a single tyrosine located at the C-terminus. A set of three analogs were prepared in which one aromatic residue was replaced by p-cyanoPhe. […] It can also be quenched via FRET to tyrosine. p-CyanoPhe fluorescence is high for unaggregated IAPP and is quenched in the amyloid fibers. The intermediate species have high p-cyanoPhe fluorescence intensity and the value is the same as that of freshly dissolved material.

ANS binding assay = assay type: physicochemical; conditions: 10 μM ANS, pH 7.4
Procedure: 8-Anilinonaphthalenesulfonic Acid (ANS) is a small hydrophobic dye which is been widely used in protein folding studies. It typically binds to partially structured states which are rich in secondary structure, compact, but which have not yet established the final tertiary structure, thus this dye can be used to detect a molten globule-like character of proteins. Fluorescence spectra of ANS-peptide complexes were measured using a Spex Fluorolog fluorimeter at 25 C (370 nm excitation and 460 nm emission). ANS-peptide complexes were monitored by adding aliquots of human IAPP to a 1 cm cuvette containing 10 μM ANS at various times along the amyloid formation reaction. Final solution conditions contained 16 mM tris HCl and 10 μM ANS (pH 7.4). […] All values represent means±SEM (n=3).

[6] = Far-UV CD of h-IAPP species; assay type: physicochemical; conditions: at time points of toxicity
Procedure: CD measurements of IAPP, sRAGE and IAPP/sRAGE reactions were taken at various incubation times. Far-UV CD experiments monitor the development of secondary structure of h-IAPP species and give insight into the conformational requirement for IAPP/RAGE-binding. All CD experiments were performed on an Applied Photophysics circular dichroism spectrophotometer by directly transferring 300 μL of peptide solution from kinetic assays into a 0.1 cm quartz cuvette a few minutes prior to data collection. The CD spectra for sRAGE and tris HCl buffer was subtracted from all RAGE/IAPP mixtures. The final far-UV CD data was collected over the range of 190 to 260 nm. Final solution conditions contained 16 mM tris HCl (pH 7.4).

binding to sRAGE (tryptophan fluorescence quenching) (sRAGE [3]): wave of fluorescence quenching
protein pelleted [5]: 6.5%
protein remained in solution ([5]; 20 min): 93.5%
ANS binding to final amyloid fibrils (ANS binding assay): did bind
ANS binding to monomeric form and intermediates (ANS binding assay): No ANS binding was observed
SMILES: CC[C@H](C)[C@H](NC(=O)[C@H](C)NC(=O)CNC(=O)[C@H](Cc1ccccc1)NC(=O)[C@H](CC(N)=O)NC(=O)[C@H](CC(N)=O)NC(=O)[C@H](CO)NC(=O)[C@H](CO)NC(=O)[C@H](Cc1c[nH]cn1)NC(=O)[C@@H](NC(=O)[C@H](CC(C)C)NC(=O)[C@H](Cc1ccccc1)NC(=O)[C@H](CC(N)=O)NC(=O)[C@H](C)NC(=O)[C@H](CC(C)C)NC(=O)[C@H](CCCNC(=N)N)NC(=O)[C@H](CCC(N)=O)NC(=O)[C@@H](NC(=O)[C@H](C)NC(=O)[C@@H]1CSSC[C@H](NC(=O)[C@@H](N)CCCCN)C(=O)N[C@@H](CC(N)=O)C(=O)N[C@@H]([C@@H](C)O)C(=O)N[C@@H](C)C(=O)N[C@@H]([C@@H](C)O)C(=O)N1)[C@@H](C)O)C(C)C)C(=O)N[C@@H](CC(C)C)C(=O)N[C@@H](CO)C(=O)N[C@@H](CO)C(=O)N[C@H](C(=O)N[C@@H](CC(N)=O)C(=O)N[C@H](C(=O)NCC(=O)N[C@@H](CO)C(=O)N[C@@H](CC(N)=O)C(=O)N[C@H](C(=O)N[C@@H](Cc1ccc(O)cc1)C(N)=O)[C@@H](C)O)C(C)C)[C@@H](C)O [h-IAPP, human islet amyloid polypeptide]
MCP-1 and IL-1β mRNA expression [1]: increase in MCP-1 and IL-1β mRNA expression
RAGE binding of transiently populated intermediates (SPR) (sRAGE [2]; intermediates): binds transiently populated intermediates
RAGE binding of monomers or amyloid fibrils (SPR) (sRAGE [2]; monomers or amyloid fibrils): does not bind to h-IAPP monomers or amyloid fibrils
loss in viability relative to buffer treatment alone (mouse pancreatic islets): 50%
toxicity to smooth muscle cells ([4]; h-IAPP intermediates): toxic to smooth muscle cells
toxicity to RAGE-null versus wild type SMCs ([4]; increasing amounts of h-IAPP toxic species): genetic deletion of RAGE protects SMCs from h-IAPP toxicity compared to WT SMCs
solubility of toxic oligomers (centrifugation) [5]: soluble and cannot be pelleted
solubility of toxic species (ultracentrifugation) [5]: soluble
secondary structure (far UV CD) [6]: some partial helical structure, but no beta sheet structure
